Experimental data: patent US11917995B2, “Fungicidal compositions of mefentrifluconazole” (BASF AGRO B.V., priority 2018, dated 2024)

What was measured:
Type in all cases: cell-based
Septoria tritici = assay: Microtest: activity against leaf blotch on wheat caused by Septoria tritici (Septtr); conditions: single active compound, 0.001 ppm; 7 days after inoculation
Description: (§1) The visually determined percentages of infected leaf areas are converted into efficacies in % of the untreated control.
(§2) The efficacy (E) is calculated as follows using Abbot's formula: E=(1−α/β·100 • α corresponds to the fungicidal infection of the treated plants in % and • β corresponds to the fungicidal infection of the untreated (control) plants in %
(§3) An efficacy of 0 means that the infection level of the treated plants corresponds to that of the untreated control plants; an efficacy of 100 means that the treated plants were not infected. The expected efficacies of active compound combinations may be determined using Colby's formula (Colby, S. R. “Calculating synergistic and antagonistic responses of herbicide combinations”, Weeds, 15, pp. 20-22, 1967) and compared with the observed efficacies. […]
The stock solutions were mixed according to the ratio, pipetted onto a micro titer plate (MTP) and diluted with water to the stated concentrations. […] Using an absorption photometer, the MTPs were measured at 405 nm 7 days after the inoculation.
(§4) The measured parameters were compared to the growth of the active compound-free control variant (100%) and the fungus-free and active compound-free blank value to determine the relative growth in % of the pathogens in the respective active compounds.

Sclerotinia sclerotiorum = assay: Microtiterplate test: activity against Sclerotinia sclerotiorum (Sclesc); conditions: single active compound, 0.25 ppm; 7 days after inoculation
Description: as §1, §2, §3
The stock solutions were mixed according to the ratio, pipetted onto a micro titer plate(MTP) and diluted with water to the stated concentrations. […] Using an absorption photometer, the MTPs were measured at 405 nm 7 days after the inoculation.
as §4

Colletotrichum truncatum = assay: Microtiterplate test: activity against Colletotrichum truncatum (Colldu); conditions: single active compound, 7 days after inoculation
Description: as §1, §2
(§5) An efficacy of 0 means that the infection level of the treated plants corresponds to that of the untreated control plants; an efficacy of 100 means that the treated plants were not infected. The expected efficacies of active compound combinations may be determined using Colby's formula (Colby, S. R. “Calculating synergistic and antagonistic responses of herbicide combinations”, Weeds, 15, pp. 20-22, 1967) and compared with the observed efficacies.
(§6) Colby's formula: E=x+y−x·y/100 • E expected efficacy, expressed in % of the untreated control, when using the mixture of the active compounds A and B at the concentrations a and b • x efficacy, expressed in % of the untreated control, when using the active compound A at the concentration a • y efficacy, expressed in % of the untreated control, when using the active compound B at the concentration b.
(§7) The active compounds were formulated separately as a stock solution having a concentration of 10000 ppm in dimethyl sulfoxide.
(§8) The stock solutions were mixed according to the ratio, pipetted onto a micro titer plate(MTP) and diluted with water to the stated concentrations. Spores of the respective pathogen in an aqueous biomalt or yeast-bactopeptone-glycerine solution were then added. The plates were placed in a water vapor-saturated chamber at a temperature of 18° C. Using an absorption photometer, the MTPs were measured at 405 nm 7 days after the inoculation.
as §4

[1] = tested on: Colletotrichum orbicularum; assay: Microtiterplate test: activity against Colletotrichum orbicularum (Collla); conditions: single active compound, 7 days after inoculation
Description: as §1, §2, §5, §6, §7, §8, §4

SMILES	Observed efficacy (Septoria tritici) [%]	Observed efficacy (Sclerotinia sclerotiorum) [%]	Observed efficacy (Colletotrichum truncatum; 0.063 ppm) [%]	Observed efficacy (Colletotrichum truncatum; 0.25 ppm) [%]	Observed efficacy (Colletotrichum truncatum; 1 ppm) [%]	Observed efficacy (Colletotrichum truncatum; 4 ppm) [%]	Observed efficacy ([1]; 0.25 ppm) [%]	Observed efficacy ([1]; 1 ppm) [%]
CC(O)(Cn1cncn1)c1ccc(Oc2ccc(Cl)cc2)cc1C(F)(F)F (stereo not drawn) [Mefentrifluconazole, mefentrifluconazole]	0	1	0	8	18	28	7	25
CCN(C)C=Nc1cc(C)c(Oc2ccccc2)cc1C [II-3, N′-(2,5-dimethyl-4-phenoxy-phenyl)-N-ethyl-N-methyl-formamidine]	5	11				16	19	
